For seven compounds, IC50, IC90 and MIC results are on record in ChEMBL document CHEMBL4177599, “The antitubercular activity of various nitro(triazole/imidazole)-based compounds” (Bioorg Med Chem, 2017).

Holding throughout (format): functional, organism-based
The subject of assay [1] is Mycobacterium tuberculosis. Kind of assay: Antitubercular activity against isoniazid-resistant Mycobacterium tuberculosis INH-R2 ATCC 35822 after 5 days. Particulars: INH-R2 ATCC 35822, 120 h.
The test system of assay [2] is Mycobacterium tuberculosis. Kind of assay: Antitubercular activity against rifampicin-resistant Mycobacterium tuberculosis H37Rv RIF-R2 ATCC 35828 after 5 days. The settings on record: H37Rv RIF-R2 ATCC 35828, 120 h.
Assay [3] concerns Mycobacterium tuberculosis. In words: Antitubercular activity against rifampicin-resistant Mycobacterium tuberculosis H37Rv RIF-R1 harboring rpoB S522L mutant after 5 days.
For assay [4], the system named is Mycobacterium tuberculosis. Kind of assay: Antitubercular activity against isoniazid-resistant Mycobacterium tuberculosis H37Rv INH-R1 harboring katG Y155 mutant after 5 days.
The subject of assay [5] is Mycobacterium tuberculosis. In words: Antitubercular activity against fluoroquinolone-resistant Mycobacterium tuberculosis H37Rv harboring gyrB D94N mutant after 5 days.

Structures are written as SMILES. Values after ≈ are worked out from the molar mass of the structure shown.

`O=C(CCn1cnc([N+](=O)[O-])n1)Nc1ccc(Oc2ccc(Cl)cc2)cc1`: the IC50 in assay [1] was determined as 18 µM; in assay [2], 17 µM; in assay [3], 15 µM; in assay [4], 25 µM; in assay [5] it was 24 µM. The IC90 amounted to 32 µM in assay [1]; 30 µM in assay [2]; 22 µM in assay [3]; 53 µM in assay [4]; 42 µM in assay [5]. Moreover, the MIC in assay [1] was 31 µM (≈ 12 µg/mL); in assay [2], 29 µM (≈ 11.2 µg/mL); in assay [3], 24 µM (≈ 9.31 µg/mL); in assay [4], 46 µM (≈ 17.8 µg/mL); in assay [5] it was 40 µM (≈ 15.5 µg/mL).
Turning to `O=C(Cn1cnc([N+](=O)[O-])n1)Nc1ccc(N2CCCCC2)cc1`, the IC50 in assay [1] worked out at 30 µM; in assay [2], 36 µM; in assay [3], 25 µM; in assay [4], 34 µM; in assay [5] it was 32 µM. The concentration for an effect of 90% (IC90) turned out to be 44 µM in assay [1]; 49 µM in assay [2]; 41 µM in assay [3]; 53 µM in assay [4]; 47 µM in assay [5]. Besides, the MIC stood at 48 µM (≈ 15.9 µg/mL) in assay [1]; 51 µM (≈ 16.8 µg/mL) in assay [2]; 36 µM (≈ 11.9 µg/mL) in assay [3]; 54 µM (≈ 17.8 µg/mL) in assay [4]; 50 µM (≈ 16.5 µg/mL) in assay [5].
As for `O=C(Cn1ccnc1[N+](=O)[O-])Nc1ccc(Oc2ccc(Cl)cc2)cc1`, the IC50 was above 100 µM in assay [1]; 56 µM in assay [2]; 48 µM in assay [3]; above 100 µM in assay [4]; above 100 µM in assay [5]. The IC90 in assay [1], in assay [2], in assay [3], in assay [4] and in assay [5] was above 100 µM throughout. The MIC in assay [1], in assay [2], in assay [3], in assay [4] and in assay [5] was above 200 µM throughout.
Turning to `CC(O)(Cn1cnc([N+](=O)[O-])n1)c1ccc(-c2ccc(C#N)cc2)cc1` (stereo not given), the MIC in assay [1], in assay [2], in assay [3], in assay [4] and in assay [5] was above 200 µM in each case.
With `O=C(NCCCCn1cnc([N+](=O)[O-])n1)c1sc2ccccc2c1Cl`, the MIC in assay [1] came out at 7.3 µM (≈ 2.77 µg/mL); in assay [2], 6.4 µM (≈ 2.43 µg/mL); in assay [3], 7.9 µM (≈ 3 µg/mL); in assay [4] it was 7.5 µM (≈ 2.85 µg/mL); in assay [5] it was 7.1 µM (≈ 2.7 µg/mL).
With `O=C(CCn1cnc([N+](=O)[O-])n1)Nc1ccc(Oc2ccccc2)cc1`, the IC50 in assay [1] worked out at 26 µM; in assay [2], 29 µM; in assay [3] it was 28 µM; in assay [4], 38 µM; in assay [5], 32 µM. Further, the IC90 in assay [1] came out at 53 µM; in assay [2], 40 µM; in assay [3], 42 µM; in assay [4], 71 µM; in assay [5], 68 µM. The MIC in assay [1] was 56 µM (≈ 19.8 µg/mL); in assay [2], 48 µM (≈ 17 µg/mL); in assay [3] it was 48 µM (≈ 17 µg/mL); in assay [4] it was 59 µM (≈ 20.8 µg/mL); in assay [5] it was 62 µM (≈ 21.9 µg/mL).
With `O=C(Cn1cnc([N+](=O)[O-])n1)Nc1nc(-c2ccc(F)c(F)c2)cs1`, the IC50 worked out at 31 µM in assay [1]; 30 µM in assay [2]; 25 µM in assay [3]; 32 µM in assay [4]; 31 µM in assay [5]. Also, the IC90 in assay [1] turned out to be 45 µM; in assay [2], 38 µM; in assay [3] it was 40 µM; in assay [4], 47 µM; in assay [5], 44 µM. The MIC amounted to 49 µM (≈ 17.9 µg/mL) in assay [1]; 45 µM (≈ 16.5 µg/mL) in assay [2]; 39 µM (≈ 14.3 µg/mL) in assay [3]; 50 µM (≈ 18.3 µg/mL) in assay [4]; 48 µM (≈ 17.6 µg/mL) in assay [5].
